Results on 22 compounds are retold here after PMC7582602, “Beyond the Canonical Endocannabinoid System. A Screening of PPAR Ligands as FAAH Inhibitors” (International Journal of Molecular Sciences, 2020).

What is called melting point is the temperature of the solid-liquid transition. As usually defined, the EC50 is the concentration giving half of the maximal effect. The term Emax denotes the greatest response seen or fitted, relative to the assay's reference. In general, IC50 refers to the concentration that inhibits the measured activity by half. What is called inhibition is the change of the read-out against control, counted positive when it falls. The logD is lipophilicity at a set pH, counting ionised and neutral species.

For data set [1], the target named is T1, human PPARα (Homo sapiens, UniProt Q07869).
T1 sequence (Q07869 239-466 limits assumed): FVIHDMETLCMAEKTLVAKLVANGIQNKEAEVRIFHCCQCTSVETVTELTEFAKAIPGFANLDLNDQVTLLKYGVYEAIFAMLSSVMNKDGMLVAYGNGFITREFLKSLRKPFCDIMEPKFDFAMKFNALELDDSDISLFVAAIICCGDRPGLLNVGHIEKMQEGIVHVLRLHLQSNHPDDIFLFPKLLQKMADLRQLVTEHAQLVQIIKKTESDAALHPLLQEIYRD
The experiment in a line: GAL4-PPARα-LBD transactivation (luciferase) assay in HepG2 cells. Particulars: for Emax: HepG2, read-out: PPARα Emax.
Procedure: (§1) Transactivation assays were conducted seeding 10^5 cells/well in a 24-well plate. The cells were transfected after 24 h with the calcium phosphate method CAPHOS®, following the manufacturer’s guidelines. Plasmids encoding the fusion proteins GAL4-PPARa-LBD, GAL4-PPARg-LBD, GAL4-PPARd-LBD or GAL4-FXR-LBD (30 ng), pGAL5TKpGL3 (100 ng), and pCMVbgal (250 ng) were used. Treatment of the cells with the investigated compounds was carried out 4 h after transfection, in triplicate, and the cells were incubated in the treated medium for additional 20 h. Cells were then lysed and luciferase activity in the extract was determined via a VICTOR^3 V Multilabel Plate Reader, PerkinElmer).

The next data set has as its target T2, FAAH Human recombinant (Homo sapiens, UniProt O00519).
T2 construct: purchased Cayman Chemical
T2 sequence (O00519 1-579): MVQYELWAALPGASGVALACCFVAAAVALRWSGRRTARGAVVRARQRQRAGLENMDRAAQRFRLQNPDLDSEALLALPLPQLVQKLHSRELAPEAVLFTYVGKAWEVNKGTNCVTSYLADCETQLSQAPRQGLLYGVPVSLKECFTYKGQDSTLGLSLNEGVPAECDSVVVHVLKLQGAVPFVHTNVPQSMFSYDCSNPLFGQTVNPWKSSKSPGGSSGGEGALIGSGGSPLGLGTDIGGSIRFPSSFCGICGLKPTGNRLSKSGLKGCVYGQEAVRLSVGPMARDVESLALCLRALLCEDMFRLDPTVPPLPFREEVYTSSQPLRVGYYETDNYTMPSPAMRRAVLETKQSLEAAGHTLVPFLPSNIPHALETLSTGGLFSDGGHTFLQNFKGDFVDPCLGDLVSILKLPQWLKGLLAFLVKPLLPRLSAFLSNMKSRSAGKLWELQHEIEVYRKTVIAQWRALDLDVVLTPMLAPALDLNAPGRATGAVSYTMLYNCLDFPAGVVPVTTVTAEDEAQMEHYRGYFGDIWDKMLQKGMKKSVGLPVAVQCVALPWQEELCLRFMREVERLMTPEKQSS
The data set can be described thus: FAAH inhibition assay (fluorometric, AMC-AA substrate). The following applies: for IC50: human recombinant FAAH, mean ± SEM, i: inactive; for inhibition at 100 µM: read-out: FAAH % inhibition @ 100 μM. Type of data set: biochemical. Here is the method: Briefly, 96-well black flat-bottom microtiter NBS plates (COSTAR flat black) were utilized to perform the assays (in triplicate).
Control wells lacking the inhibitor and blank wells lacking both inhibitor and enzyme were used to calculate percent inhibition for each tested compound. IC50 values were calculated via GraphPad Prism 5.0 (GraphPad Software, La Jolla, CA, USA) and are reported as mean ± SEM of at least two independent measurements performed in triplicate.

For data set [2], the target named is T3, human PPARγ (Homo sapiens, UniProt P37231).
T3 sequence (P37231 238-503 limits assumed): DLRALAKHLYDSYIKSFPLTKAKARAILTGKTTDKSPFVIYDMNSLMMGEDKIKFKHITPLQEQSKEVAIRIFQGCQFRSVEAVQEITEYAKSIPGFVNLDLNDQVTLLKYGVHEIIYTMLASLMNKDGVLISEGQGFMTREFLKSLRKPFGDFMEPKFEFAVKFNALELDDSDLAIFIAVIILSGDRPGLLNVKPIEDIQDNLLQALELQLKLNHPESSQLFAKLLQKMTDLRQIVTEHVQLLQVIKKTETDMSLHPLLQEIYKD
The data set can be described thus: GAL4-PPARγ-LBD transactivation (luciferase) assay in HepG2 cells. Particulars: for Emax: HepG2, read-out: PPARγ Emax.
Procedure: as §1

A further data set in a line: LogD. The data set is classed as physicochemical. The following applies: called measured LogD values.
Data set [3] has as its target T1, human PPARα. Particulars: previously reported compound; cited from earlier work.
Data set [4] addresses T3, human PPARγ. The following applies: previously reported compound; cited from earlier work.
Another data set relates to FAAH. Set-up: method as in PMID 23240907. Particulars: literature value for carprofen; cited from earlier work.

Read-outs that look alike come from different tables or passages of the source. Where only a bound is given, the exact number is not on record here.

Take `CC(Oc1ccc(Cc2ccccc2)cc1)C(=O)O` (racemic) [Compound 13, (R,S)-2-(4-benzyl)-phenoxypropanoic acid]: the melting point was in the range of 102 to 104 °C. For the same compound, at human PPARα [1], the EC50 came to 4.6 ± 1.8 µM and the Emax was found to be 116 ± 1%. At FAAH Human recombinant, the IC50 was more than 100 µM and the inhibition at 100 µM was 30%.
Consider `CC(Oc1ccc(CCc2ccccc2)cc1)C(=O)O` (racemic) [Compound 16], for which the melting point was in the range of 106 to 107 °C. On human PPARα [1], the response was half-maximal at 17.6 ± 3 µM (EC50) and the Emax came out at 116 ± 1%. Also, on FAAH Human recombinant, the IC50 is more than 100 µM and the inhibition at 100 µM stood at 32.2%. On human PPARγ [2], it took 24 ± 6 µM to reach a half-maximal effect (EC50) and the Emax is 18 ± 7%.
Regarding `O=C(/C=C/c1ccccc1)O[C@@H](Cc1ccccc1)C(=O)O` [(S)-28], the Emax came out at 34 ± 8% on human PPARα [1] and 9 ± 6% on human PPARγ [2]. Also, the IC50 at FAAH Human recombinant was more than 100 µM.
Turning to `Cc1cccc(Nc2cc(Cl)nc(SCC(=O)O)n2)c1C` [Compound 2, Wy 14,643, reference compound], on FAAH Human recombinant, the “activity on FAAH (in words)” value was “little to no activity” and the IC50 was more than 100 µM.
`CCCc1c(OCCCOc2ccc(OCC(=O)O)cc2)ccc(C(C)=O)c1O` [Compound 3, L165,041, reference compound]: at FAAH Human recombinant, the “activity on FAAH (in words)” value is on record as “little to no activity”, the IC50 is more than 100 µM and the inhibition at 100 µM came out at 40%.
Turning to `O=C(/C=C/c1ccc(O)c(O)c1)O[C@H](Cc1ccc(O)c(O)c1)C(=O)O` [Compound 4, Rosmarinic acid], at human PPARα [1], the “activity on PPARα (in words)” value was “did not find any activity”. Moreover, on FAAH Human recombinant, the IC50 is approximately 100 µM and the inhibition at 100 µM was found to be 62%. The “activity on PPARγ (in words)” value at human PPARγ [2] is given as “did not find any activity”.
`O=C(O)COc1ccc(Cc2ccccc2)cc1` [Compound 5, 4-benzyl-phenoxyacetic acid] displayed a melting point of 117 to 118 °C. Further, on human PPARα [1], the EC50 came to 24 ± 5 µM and the Emax worked out at 34 ± 8%. Also, the logD in “LogD” is 0.27. The IC50 at FAAH Human recombinant turned out to be 40.2 ± 17.7 µM. Besides, on human PPARγ [2], the response was half-maximal at 33 ± 23 µM (EC50) and the Emax was 9 ± 6%.
On to `CCCCCCCN(CCc1ccc(OCC(=O)O)cc1)c1nc2ccccc2o1` [Compound 8], for which, on human PPARα [3], the EC50 was 0.12 ± 0.16 µM and the “PPARα Emax” value is 87 ± 7%. Besides, on human PPARγ [4], the EC50 was 0.83 ± 0.75 µM and the “PPARγ Emax” value is recorded as 37 ± 11%. Moreover, on FAAH Human recombinant, the IC50 is 30.5 ± 12.6 µM.
`Oc1ccc(/C=C/c2cc(O)cc(O)c2)cc1` [Compound 12, resveratrol]: the IC50 at FAAH Human recombinant was found to be 26.1 ± 11.4 µM.
On to `O=C(O)C(Cc1ccccc1)Oc1ccc(Cc2ccccc2)cc1` (centres unmarked) [Compound 14], for which the “PPARα Emax” value at human PPARα [3] is given as 115 ± 27%. The logD in “LogD” stood at 2.62. On human PPARγ [4], the “PPARγ Emax” value is 42 ± 1%. At FAAH Human recombinant, the “activity on FAAH (in words)” value was “completely inactive” and the IC50 was more than 100 µM.
In the case of `O=C(O)COc1ccc(CCc2ccccc2)cc1` [Compound 15, 4-phenethyl-phenoxyacetic acid], the melting point is 130 to 131 °C. On FAAH Human recombinant, the IC50 was approximately 100 µM and the inhibition at 100 µM came to 63%.
As for `CC(Oc1ccc(Cc2ccc(OCc3coc(-c4ccccc4)n3)cc2)cc1)C(=O)O` (centres unmarked) [Compound 17], the “PPARα Emax” value at human PPARα [3] was 47 ± 13. In addition, the “PPARγ Emax” value on human PPARγ [4] is on record as 26 ± 3. For the same compound, the IC50 on FAAH Human recombinant was more than 100 µM.
For `O=C(O)C(Cc1ccccc1)Oc1ccc(/C=C/c2ccccc2)cc1` (centres unmarked) [Compound 18], the IC50 at FAAH Human recombinant was found to be 24 ± 2.5 µM.
Turning to `O=C(O)C(Cc1ccccc1)Oc1ccc(/C=C\c2ccccc2)cc1` (centres unmarked) [Compound 19], on FAAH Human recombinant, the IC50 was more than 100 µM and the inhibition at 100 µM was determined as 30.5%.
In the case of `O=C(O)C(Cc1ccccc1)Oc1ccc(NCc2ccccc2)cc1` (centres unmarked) [Compound 20], the “PPARα Emax” value on human PPARα [3] is on record as 78 ± 4%. For the same compound, at human PPARγ [4], the “PPARγ Emax” value was 27 ± 6%. Further, at FAAH Human recombinant, the IC50 is more than 100 µM and the inhibition at 100 µM is 39.2%.
For the compound `O=C(Cc1ccccc1)c1ccc(O[C@@H](Cc2ccccc2)C(=O)O)cc1` [Compound 21], on human PPARα [3], the EC50 was 1.8 ± 1 µM and the “PPARα Emax” value is reported as 106 ± 1%. In addition, at human PPARγ [4], the EC50 is 9.1 ± 0.9 µM and the “PPARγ Emax” value is listed as 40 ± 2%. At FAAH Human recombinant, the IC50 is more than 100 µM and the inhibition at 100 µM amounted to 34%.
`CCCCCCCN(CCc1ccc(O[C@@H](C)C(=O)O)cc1)c1nc2ccccc2o1` [Compound 25]: the “PPARα Emax” value at human PPARα [3] is on record as 78 ± 4%. Besides, the “PPARγ Emax” value on human PPARγ [4] is given as 32 ± 5%. At FAAH Human recombinant, the IC50 was approximately 100 µM and the inhibition at 100 µM was 45.1%.
Consider `CCCCCCCN(CCc1ccc(O[C@H](C)C(=O)O)cc1)c1nc2ccccc2o1` [Compound 26], for which, on human PPARα [3], the “PPARα Emax” value was 93 ± 6%. For the same compound, the “PPARγ Emax” value at human PPARγ [4] is 59 ± 2%. Also, on FAAH Human recombinant, the IC50 is more than 100 µM and the inhibition at 100 µM turned out to be 35%.
Compound `O=C(C=Cc1ccc(O)c(O)c1)N[C@@H](Cc1ccccc1)C(=O)O` [Compound 33] came in with a melting point of 198 to 199 °C. Also, the IC50 on FAAH Human recombinant was 12.6 ± 3.1 µM.
For the compound `COc1ccc(C=CC(=O)N[C@@H](Cc2ccc(O)cc2)C(=O)O)cc1OC` [Compound 35, (S)-2-(3-(3,4-dimethoxyphenyl)acrylamido)-3-(4-hydroxyphenyl)propanoic acid], the melting point was 105 to 108.5 °C.
On to `O=C(Oc1ccc([N+](=O)[O-])cc1)N1CCN(Cc2cccc(Oc3ccccc3)c2)CC1` [JZL195, reference compound], for which the IC50 at FAAH Human recombinant amounted to 0.019 ± 0.003 µM.
As to `CC(C(=O)O)c1ccc2c(c1)[nH]c1ccc(Cl)cc12` (centres unmarked) [carprofen], the IC50 in the data set with FAAH is 79 ± 20 µM.
